Source: publication PMC5915154, “Aloe-emodin as drug candidate for cancer therapy” (Oncotarget, 2018)

Legend:
CCRF-CEM cells [1] = test: Annexin V/PI detection of apoptosis and necrosis; type: cell-based, human; conditions: 0.1 μM, 72 h
Text: A commercial annexin V/PI detection apoptosis kit was used to detect early apoptosis and necrosis according to the manufacturer’s instructions (Life Technologies, Carlsbad, CA, USA). Annexin V is a calcium-dependent phospholipid-binding protein, which binds to phosphatidylserine (PS). PS is predominantly located at the inner side of the plasma membrane under normal conditions and moves to outer surface of the membrane upon the onset of early apoptosis. This can be detected FITC-labeled annexin V. PI is a marker of late apoptosis and necrosis. We treated aliquots of 1×10^6 CCRF-CEM cells with 0.5-, 1-, 2- and 4-fold IC50 of Aloe-emodin for 48, 72 or 96 h, respectively. After washing the cells with PBS, they were stained with annexin V/FITC at room temperature for 10-15 min. Subsequently, cells were washed again and stained with PI in the dark. Then, the results were analyzed by a BD Accuri™ C6 flow cytometer at excitation wavelength 488 nm and emission wavelength 530 nm to record annexin V/FITC signals. The fluorescence of PI was detected at 488 nm excitation and was measured by a 610/20 nm band pass filter. At least three independent experiments were performed..

CCRF-CEM cells [2] = test: Mitochondrial membrane potential (JC-1, flow cytometry); type: cell-based, human; conditions: CCRF-CEM, 0.01, 0.1, and 1 μM, 48 h
Text: The JC-1 Mitochondrial Membrane Potential Assay Kit (Cayman Chemical, Ann Arbor, MI, USA) was applied for the detection of MMP by flow cytometry according to the manufacturer’s instructions. The cationic dye, 5, 5’, 6, 6’- tetrachloro- 1, 1’, 3, 3’- tetraethylbenzimidazolylcarbocyanine iodide (JC-1) enters the mitochondria and changes its fluorescent properties based on the aggregation of the probe. In healthy cells having high MMP, JC-1 forms complexes known as J-aggregates with intense red fluorescence. On the other hand, in cells with low MMP, JC-1 remains in its monomeric form showing green fluorescence. […] A LSR-Fortessa FACS analyzer (Becton–Dickinson) was used to detect the J-aggregate form of JC-1 with an excitation wavelength of 535 ± 20 nm and an emission wavelength of 590 ± 20 nm as well as the monomeric form of JC-1 at excitation and emission wavelengths of 485 and 535 nm, respectively. The results were analyzed by the FlowJo software (Celeza, Olten, Switzerland). 2×10^4 cells were counted for each experiment which were repeated in triplicate.

[3] = system: multidrug-resistant P-glycoprotein-overexpressing CEM/ADR5000 leukemia cells; test: Resazurin reduction assay, CEM/ADR5000; type: cell-based, human; conditions: for IC50: Homo sapiens, CEM/ADR5000, resazurin assay, 72 h
Text: (§1) The cell lines used in the present work, their origins and maintenance conditions were previously reported. In brief, drug-sensitive CCRF-CEM and multidrug resistant P-glycoprotein-over-expressing CEM/ADR5000 leukemia cells, MDA-MB-231-pcDNA3 breast cancer cells and their transfectant subline MDA-MB-231-BCRP clone 23, HCT116 (p53^+/+) colon cancer cells and its knockout clone HCT116 (p53^-/-), U87.MG glioblastoma multiform cells and their transfectant subline U87.MGΔEGFR as well as HEK293 human embryonic kidney cells transfected with or without a cDNA for ABCB5 were used. The human peripheral mononuclear cells (PMNC) were isolated from fresh blood samples of a healthy donor by using Histopaque® (Sigma-Aldrich, Taufkirchen, Germany).
(§2) Resazurin reduction assay was conducted to test the cytotoxicity of the compounds. This assay is based on the reduction of resazurin to resorufin by viable cells. […] Briefly, aliquots of 0.5×10^4 adherent cells which were allowed to attach overnight and 1×10^4 suspension cells per well were seeded in 96-well-plates with or without the addition of varying concentrations of the test substance to get a total volume of 200 μL/well. After 72 h incubation and addition of resazurin (Sigma-Aldrich) for 4 h, staining was measured by an Infinite M2000 ProTM plate reader (Tecan, Germany) using an excitation wavelength of 544 nm and an emission wavelength of 590 nm. Each assay was independently performed for at least three times, with six parallel replicates each. The protocol has been recently reported. Fifty percent inhibition concentrations (IC50) represent the drug concentrations required to inhibit 50% of cell proliferation, which were fitted with nonlinear regression using GraphPad® Prism7.

CCRF-CEM cells [4] = test: Cell cycle analysis (PI, flow cytometry); type: cell-based, human; conditions: 0.01 μM and 0.1 μM, 24 h
Procedure: The cells were collected, washed in PBS and fixed with ice-cold 96% ethanol. After washing the cells with PBS again, the cells were dissolved in PBS and stained with propidium iodide (PI, Sigma-Aldrich) at a final concentration of 50 μg/mL for 15 min in the dark. Cell cycle analyses were performed using a BD Accuri™ C6 Flow cytometer (Becton-Dickinson, Heidelberg, Germany) at 488 nm excitation wavelength, and emission was measured by a 610/20 nm band pass filter. All experiments were performed at least in triplicates. The protocol has been recently reported by us.

[5] = system: drug-sensitive CCRF-CEM leukemia cells; test: Resazurin reduction assay, CCRF-CEM; type: cell-based; conditions: Homo sapiens, 72 h
Text: as §1, §2

| IC50 [3] | IC50 [5] | degree of resistance (IC50 CEM/ADR5000 divided by IC50 CCRF-CEM) ([3]; collateral sensitivity of CEM/ADR5000) | SMILES | apoptotic or necrotic cell death (CCRF-CEM cells [1]) | MMP depolarization (JC-1 fluorescence) (CCRF-CEM cells [2]) | cell cycle arrest (CCRF-CEM cells [4]) |
| --- | --- | --- | --- | --- | --- | --- |
| 11 µM | 0.0007 µM | – | COc1cccc2c1C(=O)c1c(O)c3c(c(O)c1C2=O)C[C@@](O)(C(=O)CO)C[C@@H]3O[C@H]1C[C@H](N)[C@H](O)[C@H](C)O1 [doxorubicin, Doxorubicin, reference compound] | late apoptosis and early necrosis | shift from red to green fluorescence | induced both S- and G2/M-arrest |
| 35.3 µM | 35.6 µM | – | Cc1cc(O)c2c(c1)C(=O)c1cc(O)cc(O)c1C2=O [emodin, Emodin] | – | – | – |
| 74.8 µM | 124 µM | 0.61 fold | COc1cc(O)c2c(c1)C(=O)c1cc(C)cc(O)c1C2=O [physcion] | – | – | – |
| 46.9 µM | 34.4 µM | – | O=C(O)c1cc(O)c2c(c1)C(=O)c1cccc(O)c1C2=O [rhein] | – | – | – |
